{"source": "patent US20040115708A1", "about": "“Method of screening agents for the treatment and prevention of cancer and cachexia and the new use of specific agents for the treatment and prevention of cancer and cachexia” (priority 2002, published 2004)", "origin": "cited, not measured here", "key": {"[1]": {"test_system": "8-Hydroxy-deoxyguanosine (8-OH-dG) in lung DNA"}, "[2]": {"test_system": "cancer in NNK treated animals", "settings": "consumption of EGCG"}}, "data": [{"molecule": "CN(CCCC(=O)c1cccnc1)N=O", "note": "[NNK, 4-(methyInitrosamino)-1-(3-pyridyl)-1-butanone]", "values": [{"measurement": "8-OH-dG (hydroxyl radical-caused DNA adduct) level", "setting": "[1]; mice treated with NNK", "value": "elevated"}]}, {"molecule": "(−)-epigallocatechin gallate", "values": [{"measurement": "levels of 8-OH-dG in lung DNA", "setting": "[1]; consumption of EGCG, NNK treated animals", "value": "significantly lowers"}, {"measurement": "incidence of cancer", "setting": "[2]", "value": "decreases"}]}]}
